The test system of experiment [1] is Rattus norvegicus. The experiment is described as follows: Gastric antisecretory activity at the dose of 100 mg/kg in pylorus lygated rats. It is filed as functional.
The species entered for experiment [2] is Rattus norvegicus. The experiment is described as follows: Dose required to inhibit gastric secretory activity in pylorus lygated rats. The format is functional. To be noted: Stomach.

Some results are limits rather than exact numbers.

`C/N=C(/NC#N)NCCCCn1nc(N2CCCC2)ccc1=O`: the inhibition in vivo at 100 mg/kg with Rattus norvegicus [1] is -1%.
As for `C/N=C(/NC#N)NCCCCn1nc(C)ccc1=O`, the inhibition in vivo at 100 mg/kg in the experiment with Rattus norvegicus [1] came out at 23.5%. Besides, the ED50 in the experiment filed under Rattus norvegicus [2] was over 100 mg/kg.
On to `C/N=C(\S)NCCCCCCn1nc(-c2ccccc2)ccc1=O`, for which the inhibition in vivo at 100 mg/kg in the experiment on Rattus norvegicus [1] came to 22.2%.
On the same count and under the same terms, the value for `C/N=C(/NC#N)NCCCCn1nc(N2CCN(C)CC2)ccc1=O` was 7.9%.
Consider `CC(C)(C)/N=C(\S)NCCCCn1nc(-c2ccccc2)ccc1=O`, for which the inhibition in vivo at 100 mg/kg in the experiment with Rattus norvegicus [1] worked out at 33.6%. Also, the ED50 in the experiment listed under Rattus norvegicus [2] is over 100 mg/kg.
The matching figures for `O=c1ccc(-c2ccccc2)nn1CCCCNC(=S)Nc1cccc2ccccc12`: 42.3% and over 100 mg/kg.
Take `CC/N=C(\S)NCCn1nc(-c2ccccc2)ccc1=O`: the inhibition in vivo at 100 mg/kg with Rattus norvegicus [1] was found to be 8.1%.
Regarding `CC(C)C/N=C(\S)NCCCCn1nc(-c2ccccc2)ccc1=O`, the inhibition in vivo at 100 mg/kg with Rattus norvegicus [1] is 35.8%. Further, the ED50 in the experiment filed under Rattus norvegicus [2] was over 100 mg/kg.
Take `C/N=C(/NC#N)NCCn1nc(-c2ccccc2)ccc1=O`: in the experiment with Rattus norvegicus [1], the inhibition in vivo at 100 mg/kg was -3.5%.
On the same count and under the same terms, the value for `C/N=C(\S)N(C)CCCCn1nc(-c2ccccc2)ccc1=O` was 17.5%.
For the compound `N#CNC(=N)NCCCn1nc(-c2ccccc2)ccc1=O`, in the experiment with Rattus norvegicus [1], the inhibition in vivo at 100 mg/kg was found to be 33.3%. The compound also gave an ED50 in the experiment listed under Rattus norvegicus [2] of over 100 mg/kg.
Turning to `C/N=C(/NC#N)NCCCCn1nc(N2CCOCC2)ccc1=O`, the inhibition in vivo at 100 mg/kg in the experiment with Rattus norvegicus [1] was -10.2%.
Still for that read-out and setting: the value for `C/N=C(\S)NCCCn1nc(C)ccc1=O` was -8.2%.
With `C/N=C(\S)NCCn1nc(C)ccc1=O`, in the experiment with Rattus norvegicus [1], the inhibition in vivo at 100 mg/kg amounted to 6%.
Same read-out and setting: the value for `C/N=C(\NC#N)NCCCCn1nc(-c2ccccc2)ccc1=O` was 79%; that for `N#CNC(=N)NCCn1nc(-c2ccccc2)ccc1=O` was 18.5%.
Same read-out and setting: the value for `C/N=C(/NC#N)NCCCn1nc(-c2ccccc2)c(C)cc1=O` was 17.2%; that for `N#CNC(=N)NCCCCCCn1nc(-c2ccccc2)ccc1=O` was 20.5%.
The same measure, in the same setting: the value for `CC/N=C(/NC#N)NCCCn1nc(-c2ccccc2)c(C)cc1=O` was 0.2%; that for `O=c1ccc(-c2ccccc2)nn1CCCCNC(=S)NCc1ccccc1` was 5.4%.
Take `C#CCN/C(=N/CCCn1nc(-c2ccccc2)ccc1=O)NC#N`: the inhibition in vivo at 100 mg/kg with Rattus norvegicus [1] was -11.8%.
For `C/N=C(/NC#N)NCCCCCn1nc(C)ccc1=O`, the inhibition in vivo at 100 mg/kg with Rattus norvegicus [1] was found to be 14.9%.
Turning to `O=c1ccc(-c2ccccc2)nn1CCCC/N=C(\S)Nc1ccc(S(=O)(=O)O)cc1`, the inhibition in vivo at 100 mg/kg in the experiment on Rattus norvegicus [1] stood at 25.1%.
On the same count and under the same terms, the value for `O=c1ccc(-c2ccccc2)nn1CCCNC(=S)NC1CCCCC1` was 23.6%; that for `C#CCN/C(=N/CCCCn1nc(-c2ccccc2)ccc1=O)NC#N` was -12.9%; that for `C/N=C(\S)NCCCCCn1nc(C)ccc1=O` was 3.2%.
Still for that read-out and setting: the value for `O=c1ccc(-c2ccccc2)nn1CCNC(=S)Nc1ccccc1` was -3.4%; that for `C/N=C(\S)NCCCCCCn1nc(C)ccc1=O` was -12.5%.
In the case of `O=c1ccc(-c2ccccc2)nn1CCNC(=S)NC1CCCCC1`, the inhibition in vivo at 100 mg/kg in the experiment on Rattus norvegicus [1] amounted to 12.3%.
On the same count and under the same terms, the value for `CCC/N=C(/NC#N)NCCCn1nc(C)ccc1=O` was 17.5%; that for `CC/N=C(\S)NCCCCCCn1nc(-c2ccccc2)ccc1=O` was -5.6%; that for `N#CN/C(=N\CCCCn1nc(-c2ccccc2)ccc1=O)NCCc1ccccc1` was 0.3%.
The same measure, in the same setting: the value for `CC/N=C(/NC#N)NCCCCn1nc(C)ccc1=O` was 13.5%; that for `O=c1ccc(-c2ccccc2)nn1CCCNC(=S)Nc1ccccc1` was 12.1%; that for `C/N=C(/NC#N)NCCCn1nc(C)ccc1=O` was 6.8%.
Take `O=c1ccc(-c2ccccc2)nn1CCCCNC(=S)NC1CCCCC1`: in the experiment with Rattus norvegicus [1], the inhibition in vivo at 100 mg/kg is 18.1%.
On to `CC/N=C(/NC#N)NCCCn1nc(-c2ccccc2)cc(C)c1=O`, for which, in the experiment with Rattus norvegicus [1], the inhibition in vivo at 100 mg/kg was found to be 23.5%.

The values above are taken from ChEMBL document CHEMBL1122344, “Pyridazinones. 2. Synthesis and antisecretory and antiulcer activities of thiourea and 2-cyanoguanidine derivatives” (1983).
